From patent publication US20100204118A1, “USE OF GRF-1 (1-29 ) AND CORTICOTROPIN-RELEASING FACTOR AS THERAPEUTIC AGENTS” (priority 2007, published 2010)
Ends that are not written are not given here.

What was measured:
[1] = test system: HIV-1IIB; assay: HIV-1 antiviral assay in CEM-SS cells (MTS readout); format: cell-based
[2] = test system: HCMV strain AD169; assay: HCMV plaque reduction assay in MRC-5 cells; format: cell-based; conditions: for inhibition of HCMV plaque formation as compared to the virus control experiment: 10 micrograms per ml, 7-10 days
[3] = test system: hepatitis B virus (HBV) ayw strain; assay: HBV experimental assay system, HepG2-2.2.15, TaqMan PCR of secreted HBV DNA; format: cell-based; conditions: 10 micrograms per ml; six days; HBV DNA in supernatant
Excerpt: HepG2-2.2.15 is a stable cell line containing the hepatitis B virus (HBV) ayw strain genome (ATCC Cat. No. CRL-11997). Antiviral compounds blocking any late step of viral replication such as transcription, translation, pregenome encapsidation, reverse transcription, particle assembly and release can be identified and characterized using this cell line. In this assay, an active compound will reduce the production of secreted HBV from cells, measured by utilizing real time quantitative PCR (TaqMan) assay to directly and accurately measure HBV DNA copies.
HepG2-2.2.15 cells were plated in 96-well microtiter plates. After 16-24 hours the confluent monolayer of HepG2-2.2.15 cells was washed and the medium was replaced with complete medium containing test peptides—10 micrograms per ml—in duplicate. […] Six days following the initial administration of the peptides, the cell culture supernatants was collected, treated with pronase and DNAse and then used in a real-time quantitative TaqMan PCR assay. The PCR-amplified HBV DNA was detected in real-time by monitoring increases in fluorescence signals that result from the exonucleolytic degradation of a quenched fluorescence probe molecule that hybridizes to the mplified HBV DNA. […] Antiviral activity was calculated from the reduction in HBV DNA levels (% virus control). […]

[4] = test system: HUVEC; assay: Endothelial tube formation assay; format: cell-based, human; conditions: 10 micrograms per ml, 20 hours
Description: The endothelial tube formation assay is based on the ability of endothelial cells to form three-dimensional capillary-like tubular structures when cultured on a gel of basement membrane extract. The endothelial tube formation assay represents a powerful model for studying inhibition and induction of angiogenesis. Pre-labeled HUVEC with Calcein AM were seeded in a 96-well culture plate coated with extracellular metrix (Chemicon international Cat. ECM625) and treated with test peptides-10 micrograms per ml-in full growth medium. […] control was vehicle only. […] Duplicate wells for each treatment were photographed and quantitatevily analyzed for an average tubule length using image analysis software ImageProPlus. Raw data were expressed as average tubule […]±standard deviation. Statistic p values were computed using the Student's t-test.

[5] = test system: murine spleen cells; assay: Th1/Th2 cytokine profiling assay (Ovalbumin-restimulated spleen cells, CBA kit); format: cell-based, mouse; conditions: 10 micrograms per ml; 72 hours after Ovalbumin restimulation
[6] = test system: A549 cells; assay: Apoptosis induction assay (Annexin-5); format: cell-based, human; conditions: 10 micrograms per ml, 24 hours
[7] = test system: Primary Human endothelial cells (HUVEC); assay: Endothelial cell migration assay; format: cell-based; conditions: 10 micrograms per ml, 22 hours

Molecule	antiviral activity of positive control compounds (HIV-1) [1]	inhibition of HBV replication as compared to the virus control infection [3]	inhibition of the tube formation of human endothelial cells [4]	production of IL-2, induced by [5]	production of IL-5, decreased by [5]	production of TNF-alpha, induced by [5]	inhibition of HCMV plaque formation as compared to the virus control experiment [2]	further results
Cc1cn([C@H]2C[C@H](N=[N+]=[N-])[C@@H](CO)O2)c(=O)[nH]c1=O [AZT]	expected levels of antiviral activity	–	–	–	–	–	–	–
Nc1nc(O)c2ncn(COC(CO)CO)c2n1 [Ganciclovir, reference compound]	–	–	–	–	–	–	–	antiviral activity of positive control compound (HCMV) ([2]; positive control): expected levels of antiviral activity
CC(C)(C)NC(=O)[C@@H]1CN(Cc2cccnc2)CCN1C[C@@H](O)C[C@@H](Cc1ccccc1)C(=O)N[C@H]1c2ccccc2C[C@H]1O [indinavir]	expected levels of antiviral activity	–	–	–	–	–	–	–
Ser-Glu-Glu-Pro-Pro-Ile-Ser-Leu-Asp-Leu-Thr-Phe-His-Leu-Leu-Arg-Glu-Val-Leu-Glu-Met-Ala-Arg-Ala-Glu-Gln-Leu- Ala-Gln-Gln-Ala-His-Ser-Asn-Arg-Lys-Leu-Met-Glu-Ile-Ile-N H2 (SEEPPISLDLTFHLLREVLEMARAEQLAQQAHSNRKLMEII-NH2) [Peptide 2]	–	57.2%	did not inhibit	66.5%	93.0	38.1%	3.2%	production of IFN-gamma, induced by [5]: 44.1%; production of IL-4, induced by [5]: 78.1%; induction of apoptosis on human lung cells [6]: 0.9%; inhibition of the migration of human endothelial cells (in words) [7]: did not inhibit
Tyr-Ala-Asp-Ala-Ile-Phe-Thr-Asn-Ser-Tyr-Arg-Lys-Val-Leu-Gly-Gln-Leu-Ser-Ala-Arg-Lys-Leu-Leu-Gln-Asp-Ile-Met-Ser-Arg-NH2 (YADAIFTNSYRKVLGQLSARKLLQDIMSR-NH2) [Peptide 1]	–	30.5%	did not inhibit	30.9%	33.0	55.5%	0.7%	change of the production of IL-4 (in words) [5]: did not significantly change; production of IFN-gamma, decreased by [5]: 29.0; induction of apoptosis on human lung cells (in words) [6]: did not show any significant induction of apoptosis; inhibition of the migration of human endothelial cells [7]: 9%
